# Results as given in patent US8022043B2, “Ceramide derivatives as modulators of immunity and autoimmunity” (Albert Einstein College of Medicine of Yeshiva University, priority 2004, dated 2011).
# How the values were obtained:
# [1] = tested on: T cell antigen receptors of human NKT cells; assay: Glycolipid human CD1d tetramer binding; details: normal blood specimens
# [2] = tested on: iNKT cells; assay: In vitro cytokine modulation, murine cell assay system; assay type: cell-based
# [3] = tested on: NOD mice; assay: Prevention of type 1 diabetes in NOD mice; assay type: in vivo; details: i.p. once per week, 200 micrograms/kg; comparator DB01-1 (indicated as KRN7000)
# Description: Cohorts of 6-8 female NOD mice were treated with placebo (vehicle) or DB01-1 (indicated as KRN7000), DB03-4 or DB03-5 injections once weekly beginning at 4-5 weeks of age. Treatment was discontinued after 5 injections (DB03-4) or 7 injections (DB03-5). Top graphs show incidence of glycosuria, and bottom graphs show survival in each cohort.
# Given the widely held belief that selective augmentation of IL-4 production can be protective or therapeutic in the setting of many autoimmune diseases, we have initiated studies to examine the efficacy of compounds such as DB03-4 and DB03-5 in diabetes prone NOD mice. […] The results reported in FIG. 10 were obtained by treating three groups, each consisting of 9-12 female NOD mice, starting from age 5 weeks with a ceramide-like glycolipid. The indicated ceramide-like glycolipids (DB03-4, DB03-5, or KRN7000) were injected i.p. once per week in a dose of 200 micrograms/kg. Treatment was discontinued at 11 weeks of age, and the mice were monitored weekly for glucosuria (top) and death (bottom).
# For experiments involving in vivo treatment of mice with the ceramide-like glycolipids, the ceramide-like glycolipids were administered by i.p. or i.v. injection in 0.2 ml PBS+0.025% Tween-20, or in vehicle alone. A typical dose is about 4-5 nmoles per animal per injection. […]
# [4] = tested on: NK T hybridoma DN32.D3; assay: Murine NK T cell hybridoma stimulation assay (IL-2 release), RMA-S.mCD1d as APC; assay type: cell-based, mouse; details: presented by RMA-S/CD1d cells
# Description: FIG. 5. […] NK T hybridoma DN32.D3 was cultured with CD1d-transfected RMA-S cells in microtiter plate wells. Each ceramide-like glycolipid was titrated over a concentration range from 0.5-500 nM, and supernatants were harvested after 24 hours for measurement of IL-2 release. Units of activity were calculated as the reciprocal of the concentration of ceramide-like glycolipid required to give a half maximal release of IL-2, and all values were normalized to the activity of KRN7000 (defined as 1 Unit). The dotted line indicates the level of activity for KRN7000. The structures of two ceramide-like glycolipids with markedly elevated activity relative to KRN7000 are shown.
# The ability of the compounds to activate NK T cell hybridomas in the presence of various types of cells expressing CD1d reported in FIG. 5A was determined using a murine NK T cell hybridoma stimulation assay. […] Relative potencies of the ceramide-like glycolipids were calculated from the reciprocal effective concentrations at half-maximal response (1/EC50), and expressed as units by normalization to the observed potency for KRN7000.
# IL-2 production by NK T hybridoma DN32D3 in response to eight selected ceramide-like glycolipids, was determined using three different cell types as antigen presenting cells. […]
# [5] = tested on: NK T cells; assay: NK T cell activation screens (Example, FIG. 5 and Table 1); assay type: cell-based; details: see Example
# Text: Using these methods, we produced more than 60 novel amino substituted analogues of KRN7000. These were screened in a functional assay that assessed the ability of the compounds to activate NK T cell hybridomas in the presence of various types of cells expressing CD1d, or in the presence of recombinant CD1d proteins bound to the tissue culture plate surface (FIG. 5).
smiles,measurement,setting,value
CCCCC/C=C\C/C=C\CCCCCCCCCC(=O)N[C@@H](COC1OC(CO)C(O)C(O)C1O)[C@H](O)[C@H](O)CCCCCCCCCCCCCC (some centres unmarked) [DB03-4],binding of glycolipid human CD1d tetramers to human NKT cells,[1],bind strongly
same,cytokine bias,[2],bias towards inducing Type 2 cytokines
same,IL-4 induction,[2]; in vitro,strong inducers of IL-4
same,IFNγ induction,"[2]; in vitro, DB03-3: in some murine strains",blunted IFNγ
same,in vitro activity at modulating cytokines,[2]; murine cell assay system,show in vitro activity
same,prevention of diabetes in NOD mice compared with KRN7000,[3],superior to KRN7000
same,potency relative to KRN7000 (IL-2 production),[4],extremely enhanced potency
same,effectiveness of compound,[5],Particularly effective
